Results taken from US12281080B2, “Quinoline-based compounds and methods of inhibiting CDK8/19” (University of South Carolina, priority 2018, dated 2025).

Columns and labels:
[1] = target: AAK1 (Homo sapiens (Human), UniProt Q2M2I8); assay: KINOMEscan scanMAX; assay type: binding; conditions: 2000 nM; read-out: Percent Control
[2] = target: AKT1 (Homo sapiens (Human), UniProt P31749); assay: KINOMEscan scanMAX; assay type: binding; conditions: 2000 nM; read-out: Percent Control
[3] = target: AKT3 (Homo sapiens (Human), UniProt Q9Y243); assay: KINOMEscan scanMAX; assay type: binding; conditions: 2000 nM; read-out: Percent Control
[4] = target: AMPK-alpha2 (PRKAA2) (Homo sapiens (Human), UniProt P54646); assay: KINOMEscan scanMAX; assay type: binding; conditions: 2000 nM; read-out: Percent Control
[5] = target: BIKE (BMP2K) (Homo sapiens (Human), UniProt Q9NSY1); assay: KINOMEscan scanMAX; assay type: binding; conditions: 2000 nM; read-out: Percent Control
[6] = target: BMPR1B (Homo sapiens (Human), UniProt O00238); assay: KINOMEscan scanMAX; assay type: binding; conditions: 2000 nM; read-out: Percent Control
[7] = target: BRK (PTK6) (Homo sapiens (Human), UniProt Q13882); assay: KINOMEscan scanMAX; assay type: binding; conditions: 2000 nM; read-out: Percent Control
[8] = target: CAMK1D (Homo sapiens (Human), UniProt Q8IU85); assay: KINOMEscan scanMAX; assay type: binding; conditions: 2000 nM; read-out: Percent Control
[9] = target: CAMKK2 (Homo sapiens (Human), UniProt Q96RR4); assay: KINOMEscan scanMAX; assay type: binding; conditions: 2000 nM; read-out: Percent Control
[10] = target: CDKL2 (Homo sapiens (Human), UniProt Q92772); assay: KINOMEscan scanMAX; assay type: binding; conditions: 2000 nM; read-out: Percent Control
[11] = target: CSNK1G3 (Homo sapiens (Human), UniProt Q9Y6M4); assay: KINOMEscan scanMAX; assay type: binding; conditions: 2000 nM; read-out: Percent Control
[12] = target: DCAMKL2 (DCLK2) (Homo sapiens (Human), UniProt Q8N568); assay: KINOMEscan scanMAX; assay type: binding; conditions: 2000 nM; read-out: Percent Control
[13] = target: EPHA3 (Homo sapiens (Human), UniProt P29320); assay: KINOMEscan scanMAX; assay type: binding; conditions: 2000 nM; read-out: Percent Control
[14] = target: EPHA7 (Homo sapiens (Human), UniProt Q15375); assay: KINOMEscan scanMAX; assay type: binding; conditions: 2000 nM; read-out: Percent Control
[15] = target: ERBB2 (Homo sapiens (Human), UniProt P04626); assay: KINOMEscan scanMAX; assay type: binding; conditions: 2000 nM; read-out: Percent Control
[16] = target: ERN1 (Homo sapiens (Human), UniProt O75460); assay: KINOMEscan scanMAX; assay type: binding; conditions: 2000 nM; read-out: Percent Control
[17] = target: FGFR3(G697C) (Homo sapiens (Human), UniProt P22607, G697C); assay: KINOMEscan scanMAX; assay type: binding; conditions: 2000 nM; read-out: Percent Control
[18] = target: FGFR4 (Homo sapiens (Human), UniProt P22455); assay: KINOMEscan scanMAX; assay type: binding; conditions: 2000 nM; read-out: Percent Control
[19] = system: FLT3(ITD, F691L); assay: KINOMEscan scanMAX; assay type: binding, human; conditions: 2000 nM
[20] = target: HIPK3 (Homo sapiens (Human), UniProt Q9H422); assay: KINOMEscan scanMAX; assay type: binding; conditions: 2000 nM; read-out: Percent Control
[21] = target: IKK-alpha (CHUK) (Homo sapiens (Human), UniProt O15111); assay: KINOMEscan scanMAX; assay type: binding; conditions: 2000 nM; read-out: Percent Control
[22] = target: IKK-epsilon (IKBKE) (Homo sapiens (Human), UniProt Q14164); assay: KINOMEscan scanMAX; assay type: binding; conditions: 2000 nM; read-out: Percent Control
[23] = target: MAP4K2 (Homo sapiens (Human), UniProt Q12851); assay: KINOMEscan scanMAX; assay type: binding; conditions: 2000 nM; read-out: Percent Control
[24] = target: MET(Y1235D) (Homo sapiens (Human), UniProt P08581, Y1235D); assay: KINOMEscan scanMAX; assay type: binding; conditions: 2000 nM; read-out: Percent Control
[25] = target: MST2 (STK3) (Homo sapiens (Human), UniProt Q13188); assay: KINOMEscan scanMAX; assay type: binding; conditions: 2000 nM; read-out: Percent Control
[26] = target: p38-delta (MAPK13) (Homo sapiens (Human), UniProt O15264); assay: KINOMEscan scanMAX; assay type: binding; conditions: 2000 nM; read-out: Percent Control
[27] = target: PAK1 (Homo sapiens (Human), UniProt Q13153); assay: KINOMEscan scanMAX; assay type: binding; conditions: 2000 nM; read-out: Percent Control
[28] = target: PDGFRA (Homo sapiens (Human), UniProt P16234); assay: KINOMEscan scanMAX; assay type: binding; conditions: 2000 nM; read-out: Percent Control
[29] = target: PIK3CA(E545K) (Homo sapiens (Human), UniProt P42336, E545K); assay: KINOMEscan scanMAX; assay type: binding; conditions: 2000 nM; read-out: Percent Control
[30] = target: PKN2 (Homo sapiens (Human), UniProt Q16513); assay: KINOMEscan scanMAX; assay type: binding; conditions: 2000 nM; read-out: Percent Control
[31] = target: RSK1(Kin.Dom.1-N-terminal) (RPS6KA1) (Homo sapiens (Human), UniProt Q15418); assay: KINOMEscan scanMAX; assay type: binding; conditions: 2000 nM; read-out: Percent Control
[32] = target: RSK2(Kin.Dom.1-N-terminal) (RPS6KA3) (Homo sapiens (Human), UniProt P51812); assay: KINOMEscan scanMAX; assay type: binding; conditions: 2000 nM; read-out: Percent Control
[33] = target: SGK2 (Homo sapiens (Human), UniProt Q9HBY8); assay: KINOMEscan scanMAX; assay type: binding; conditions: 2000 nM; read-out: Percent Control
[34] = target: SLK (Homo sapiens (Human), UniProt Q9H2G2); assay: KINOMEscan scanMAX; assay type: binding; conditions: 2000 nM; read-out: Percent Control
[35] = target: TAOK2 (Homo sapiens (Human), UniProt Q9UL54); assay: KINOMEscan scanMAX; assay type: binding; conditions: 2000 nM; read-out: Percent Control
[36] = target: WEE1 (Homo sapiens (Human), UniProt P30291); assay: KINOMEscan scanMAX; assay type: binding; conditions: 2000 nM; read-out: Percent Control
[37] = target: CDK8 in complex with Cyclin C (Homo sapiens (Human), UniProt P49336); assay: LanthaScreen Eu Kinase Binding Assay
Description: The binding of the tracer to the kinase is detected using a europium-labeled anti-tag antibody, which binds to the kinase of interest. […] The binding of an inhibitor to the kinase competes for binding with the tracer, resulting in a loss of FRET.

[38] = target: HASPIN (Homo sapiens (Human), UniProt Q8TF76); assay: DiscoverX Kd assay

Sequence of AAK1 (Q2M2I8 whole entry): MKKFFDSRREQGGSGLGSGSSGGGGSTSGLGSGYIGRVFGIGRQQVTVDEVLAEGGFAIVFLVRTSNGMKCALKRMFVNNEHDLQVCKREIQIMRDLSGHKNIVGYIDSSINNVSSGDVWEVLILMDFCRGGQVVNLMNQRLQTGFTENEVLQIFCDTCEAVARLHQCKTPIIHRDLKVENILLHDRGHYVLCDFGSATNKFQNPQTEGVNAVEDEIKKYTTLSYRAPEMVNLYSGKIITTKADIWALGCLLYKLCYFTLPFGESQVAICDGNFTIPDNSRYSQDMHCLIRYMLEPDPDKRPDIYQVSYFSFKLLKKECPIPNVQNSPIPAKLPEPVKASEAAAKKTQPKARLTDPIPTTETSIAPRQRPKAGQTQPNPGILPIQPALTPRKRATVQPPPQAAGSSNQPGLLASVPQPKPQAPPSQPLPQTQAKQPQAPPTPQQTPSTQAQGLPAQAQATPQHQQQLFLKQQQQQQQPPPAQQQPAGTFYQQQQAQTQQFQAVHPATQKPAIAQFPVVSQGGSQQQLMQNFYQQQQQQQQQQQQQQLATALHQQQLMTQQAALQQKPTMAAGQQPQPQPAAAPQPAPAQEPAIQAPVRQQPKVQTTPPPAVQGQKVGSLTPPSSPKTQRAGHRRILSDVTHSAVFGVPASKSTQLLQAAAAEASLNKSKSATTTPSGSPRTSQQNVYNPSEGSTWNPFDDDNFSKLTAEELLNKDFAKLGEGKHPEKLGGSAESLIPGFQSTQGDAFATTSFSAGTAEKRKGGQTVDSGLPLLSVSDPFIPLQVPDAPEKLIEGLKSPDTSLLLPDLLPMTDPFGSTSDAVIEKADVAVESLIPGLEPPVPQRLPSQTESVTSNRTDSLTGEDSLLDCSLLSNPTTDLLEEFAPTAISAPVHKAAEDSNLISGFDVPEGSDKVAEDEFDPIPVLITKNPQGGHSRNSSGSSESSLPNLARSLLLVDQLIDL
Sequence of CDKL2 (Q92772 whole entry): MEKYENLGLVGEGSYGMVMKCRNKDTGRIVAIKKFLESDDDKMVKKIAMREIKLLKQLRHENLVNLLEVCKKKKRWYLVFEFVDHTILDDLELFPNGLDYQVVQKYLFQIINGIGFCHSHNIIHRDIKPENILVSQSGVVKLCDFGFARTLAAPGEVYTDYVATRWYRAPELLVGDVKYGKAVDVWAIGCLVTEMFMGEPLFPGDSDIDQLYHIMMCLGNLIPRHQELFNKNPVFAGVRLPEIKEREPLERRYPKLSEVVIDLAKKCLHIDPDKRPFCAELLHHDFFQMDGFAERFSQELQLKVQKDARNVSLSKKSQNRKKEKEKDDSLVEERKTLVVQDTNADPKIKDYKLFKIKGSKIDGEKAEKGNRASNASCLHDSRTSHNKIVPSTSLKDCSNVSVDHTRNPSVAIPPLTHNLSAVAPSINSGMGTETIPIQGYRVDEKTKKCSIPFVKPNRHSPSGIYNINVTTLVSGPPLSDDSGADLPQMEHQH
Sequence of MST2 (STK3) (Q13188 whole entry): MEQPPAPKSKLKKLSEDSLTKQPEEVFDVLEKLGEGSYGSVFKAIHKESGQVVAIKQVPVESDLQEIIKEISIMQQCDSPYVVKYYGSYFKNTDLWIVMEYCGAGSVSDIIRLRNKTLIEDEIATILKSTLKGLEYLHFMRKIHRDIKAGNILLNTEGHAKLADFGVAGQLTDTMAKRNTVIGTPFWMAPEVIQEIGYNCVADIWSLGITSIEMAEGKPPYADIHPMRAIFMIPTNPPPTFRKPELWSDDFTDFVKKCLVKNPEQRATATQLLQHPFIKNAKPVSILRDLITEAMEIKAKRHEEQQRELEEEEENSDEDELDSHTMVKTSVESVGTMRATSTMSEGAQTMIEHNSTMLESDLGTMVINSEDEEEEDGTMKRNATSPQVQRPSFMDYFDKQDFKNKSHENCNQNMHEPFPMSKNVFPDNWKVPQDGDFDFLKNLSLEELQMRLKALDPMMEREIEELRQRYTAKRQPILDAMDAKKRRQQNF
Sequence of HIPK3 (Q9H422 whole entry): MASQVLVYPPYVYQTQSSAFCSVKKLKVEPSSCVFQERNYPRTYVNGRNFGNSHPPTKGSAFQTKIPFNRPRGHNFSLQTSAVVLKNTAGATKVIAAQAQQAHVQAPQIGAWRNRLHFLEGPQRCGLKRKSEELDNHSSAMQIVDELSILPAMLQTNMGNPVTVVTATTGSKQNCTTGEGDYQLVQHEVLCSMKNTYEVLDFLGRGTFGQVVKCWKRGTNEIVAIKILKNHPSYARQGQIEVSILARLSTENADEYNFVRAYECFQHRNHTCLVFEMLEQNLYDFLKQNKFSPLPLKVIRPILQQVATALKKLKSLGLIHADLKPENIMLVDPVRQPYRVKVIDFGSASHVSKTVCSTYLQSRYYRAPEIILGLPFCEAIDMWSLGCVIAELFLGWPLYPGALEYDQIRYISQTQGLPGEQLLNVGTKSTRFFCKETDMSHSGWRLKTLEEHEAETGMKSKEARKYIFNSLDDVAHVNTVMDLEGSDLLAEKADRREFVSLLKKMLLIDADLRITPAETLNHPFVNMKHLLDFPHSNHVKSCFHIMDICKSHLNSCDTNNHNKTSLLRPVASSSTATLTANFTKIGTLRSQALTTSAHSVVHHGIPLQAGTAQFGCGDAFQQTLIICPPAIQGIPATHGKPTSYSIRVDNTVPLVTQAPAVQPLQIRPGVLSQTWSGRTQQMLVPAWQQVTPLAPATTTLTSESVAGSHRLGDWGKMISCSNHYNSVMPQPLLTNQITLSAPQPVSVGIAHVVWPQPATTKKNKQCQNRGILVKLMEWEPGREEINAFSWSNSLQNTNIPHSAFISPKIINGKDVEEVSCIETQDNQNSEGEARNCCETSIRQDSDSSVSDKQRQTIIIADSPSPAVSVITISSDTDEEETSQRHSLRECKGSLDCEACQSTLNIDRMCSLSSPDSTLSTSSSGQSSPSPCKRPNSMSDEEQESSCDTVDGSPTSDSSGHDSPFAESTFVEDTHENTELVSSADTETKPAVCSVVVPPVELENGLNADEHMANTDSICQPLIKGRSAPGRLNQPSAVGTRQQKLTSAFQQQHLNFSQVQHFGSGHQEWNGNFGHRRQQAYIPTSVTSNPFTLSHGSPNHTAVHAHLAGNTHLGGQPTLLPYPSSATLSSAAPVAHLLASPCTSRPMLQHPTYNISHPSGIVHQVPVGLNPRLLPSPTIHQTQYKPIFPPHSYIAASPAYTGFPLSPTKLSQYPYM
Sequence of RSK1(Kin.Dom.1-N-terminal) (RPS6KA1) (Q15418 62-321): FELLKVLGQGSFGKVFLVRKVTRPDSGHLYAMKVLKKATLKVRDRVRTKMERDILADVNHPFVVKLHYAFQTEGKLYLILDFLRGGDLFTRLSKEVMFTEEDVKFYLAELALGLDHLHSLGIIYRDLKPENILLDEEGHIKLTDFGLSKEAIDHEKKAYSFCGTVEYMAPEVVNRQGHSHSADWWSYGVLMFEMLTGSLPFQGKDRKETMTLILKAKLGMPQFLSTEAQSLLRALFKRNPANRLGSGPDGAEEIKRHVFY
Sequence of BMPR1B (O00238 14-502): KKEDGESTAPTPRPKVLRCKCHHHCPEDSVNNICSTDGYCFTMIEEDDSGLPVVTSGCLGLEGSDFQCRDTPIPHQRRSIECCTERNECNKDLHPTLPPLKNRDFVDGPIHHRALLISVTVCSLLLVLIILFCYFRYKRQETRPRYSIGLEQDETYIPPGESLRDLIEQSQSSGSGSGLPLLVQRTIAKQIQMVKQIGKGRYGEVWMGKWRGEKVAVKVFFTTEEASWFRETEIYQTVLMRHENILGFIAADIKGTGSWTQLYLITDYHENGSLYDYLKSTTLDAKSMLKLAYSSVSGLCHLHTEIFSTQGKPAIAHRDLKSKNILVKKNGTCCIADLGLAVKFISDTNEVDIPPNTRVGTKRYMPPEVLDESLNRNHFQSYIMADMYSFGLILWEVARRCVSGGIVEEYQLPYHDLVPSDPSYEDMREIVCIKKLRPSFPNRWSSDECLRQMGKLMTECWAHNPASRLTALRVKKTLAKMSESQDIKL
Sequence of IKK-alpha (CHUK) (O15111 whole entry): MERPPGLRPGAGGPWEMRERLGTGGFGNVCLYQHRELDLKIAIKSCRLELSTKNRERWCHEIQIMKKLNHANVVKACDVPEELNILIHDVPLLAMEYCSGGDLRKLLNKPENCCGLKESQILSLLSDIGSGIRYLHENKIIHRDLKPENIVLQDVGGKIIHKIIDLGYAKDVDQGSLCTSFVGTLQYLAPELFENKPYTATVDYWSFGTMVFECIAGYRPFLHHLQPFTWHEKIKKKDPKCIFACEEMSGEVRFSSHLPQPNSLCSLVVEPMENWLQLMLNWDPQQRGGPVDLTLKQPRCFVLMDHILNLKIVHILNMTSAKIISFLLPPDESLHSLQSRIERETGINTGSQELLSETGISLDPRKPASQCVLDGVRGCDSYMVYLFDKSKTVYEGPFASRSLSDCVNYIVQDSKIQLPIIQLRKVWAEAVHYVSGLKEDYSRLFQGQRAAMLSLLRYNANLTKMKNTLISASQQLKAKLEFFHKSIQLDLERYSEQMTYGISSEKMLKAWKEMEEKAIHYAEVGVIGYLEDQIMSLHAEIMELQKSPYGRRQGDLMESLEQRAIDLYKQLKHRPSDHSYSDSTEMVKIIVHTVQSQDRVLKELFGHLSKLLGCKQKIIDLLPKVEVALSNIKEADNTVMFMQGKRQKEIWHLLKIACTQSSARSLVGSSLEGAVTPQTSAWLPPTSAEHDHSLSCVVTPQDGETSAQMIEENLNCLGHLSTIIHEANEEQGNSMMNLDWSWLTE
Sequence of RSK2(Kin.Dom.1-N-terminal) (RPS6KA3) (P51812 68-327): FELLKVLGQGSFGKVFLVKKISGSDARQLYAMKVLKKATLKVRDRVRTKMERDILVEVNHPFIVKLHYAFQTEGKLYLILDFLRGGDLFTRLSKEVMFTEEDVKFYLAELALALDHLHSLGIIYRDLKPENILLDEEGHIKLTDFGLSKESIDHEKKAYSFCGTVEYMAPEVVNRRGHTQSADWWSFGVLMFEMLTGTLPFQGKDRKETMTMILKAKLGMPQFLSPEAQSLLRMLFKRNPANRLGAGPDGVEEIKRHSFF

CN1CCN(C(=O)c2ccc3cc(CCNc4ccnc5ccc(C#N)cc45)ccc3c2)CC1 [compound 6148, 4-((2-(6-(4-methylpiperazine-1-carbonyl)naphthalen-2-yl)ethyl)amino)quinoline-6-carbonitrile]
remaining binding at 2 µM [1]: 84%
remaining binding at 2 µM [2]: 89%
remaining binding at 2 µM [3]: 100%
remaining binding at 2 µM [4]: 42%
remaining binding at 2 µM [5]: 97%
remaining binding at 2 µM [6]: 70%
remaining binding at 2 µM [7]: 97%
remaining binding at 2 µM [8]: 80%
remaining binding at 2 µM [9]: 82%
remaining binding at 2 µM [10]: 75%
remaining binding at 2 µM [11]: 76%
remaining binding at 2 µM [12]: 94%
remaining binding at 2 µM [13]: 100%
remaining binding at 2 µM [14]: 91%
remaining binding at 2 µM [15]: 73%
remaining binding at 2 µM [16]: 58%
remaining binding at 2 µM [17]: 93%
remaining binding at 2 µM [18]: 96%
Percent Control [19]: 59%
remaining binding at 2 µM [20]: 52%
remaining binding at 2 µM [21]: 76%
remaining binding at 2 µM [22]: 91%
remaining binding at 2 µM [23]: 29%
remaining binding at 2 µM [24]: 78%
remaining binding at 2 µM [25]: 100%
remaining binding at 2 µM [26]: 97%
remaining binding at 2 µM [27]: 92%
remaining binding at 2 µM [28]: 97%
remaining binding at 2 µM [29]: 55%
remaining binding at 2 µM [30]: 89%
remaining binding at 2 µM [31]: 91%
remaining binding at 2 µM [32]: 62%
remaining binding at 2 µM [33]: 61%
remaining binding at 2 µM [34]: 92%
remaining binding at 2 µM [35]: 77%
remaining binding at 2 µM [36]: 88%
IC50 [37]: 3.8 nM
Kd [38]: 1000 nM
